Laboratory results taken from ChEMBL document CHEMBL1144966, “Both 5-arylidene-2-thioxodihydropyrimidine-4,6(1H,5H)-diones and 3-thioxo-2,3-dihydro-1H-imidazo[1,5-a]indol-1-ones are light-dependent tumor necrosis factor-alpha antagonists” (Bioorg Med Chem Lett, 2003).
pIC50: −log10 of the molar value.

Key:
[1] = biological target: T1, Tumor necrosis factor receptor superfamily member 1A (Homo sapiens) (UniProt P19438); assay: Compound was tested for inhibition of TNF-alpha binding to TNFRc1 at a concentration of 10 uM
T1 sequence (whole entry): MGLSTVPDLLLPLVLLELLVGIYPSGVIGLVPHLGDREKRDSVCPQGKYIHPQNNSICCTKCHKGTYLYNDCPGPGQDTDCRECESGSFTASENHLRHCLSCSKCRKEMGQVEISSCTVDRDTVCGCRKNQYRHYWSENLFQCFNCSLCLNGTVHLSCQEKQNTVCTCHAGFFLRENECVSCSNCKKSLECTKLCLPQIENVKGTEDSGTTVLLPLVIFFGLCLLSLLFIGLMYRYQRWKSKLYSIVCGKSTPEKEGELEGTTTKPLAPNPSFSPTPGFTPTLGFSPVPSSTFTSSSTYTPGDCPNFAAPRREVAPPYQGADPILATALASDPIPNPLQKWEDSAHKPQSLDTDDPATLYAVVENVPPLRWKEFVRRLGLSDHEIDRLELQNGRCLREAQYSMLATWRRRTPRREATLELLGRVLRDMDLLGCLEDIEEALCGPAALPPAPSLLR

[2] = biological target: T2, Tumor necrosis factor receptor superfamily member 1A (Homo sapiens, UniProt P19438); assay: Inhibition of TNF-alpha binding to TNFRc1
T2 sequence (P19438 whole entry): T1 sequence (whole entry)

Compound | inhibition [1] | pIC50 [2]
C=CCN1C(=O)c2c(C)c3c(OC)cc(OC)cc3n2C1=O | 0% | 
CCN1C(=O)c2cc3ccccc3n2C1=S | 27% | 
C=CCN1C(=O)c2cc3cc(Cl)ccc3n2C1=S | 17% | 
C=CCN1C(=O)c2cc3cc(OCc4ccccc4)ccc3n2C1=S | 46% | 
CCN1C(=O)C(=Cc2ccc(C)s2)C(=O)N(CC)C1=S |  | 5.47
CCN1C(=O)C(=Cc2cc3ccccc3[nH]2)C(=O)N(CC)C1=S |  | 4.99
CCN1C(=O)C(=Cc2ccc(-c3ccccc3C(F)(F)F)o2)C(=O)N(CC)C1=S |  | 5.70
CCN1C(=O)C(=Cc2ccc(-c3cc(C(F)(F)F)nn3C)s2)C(=O)N(CC)C1=S | 33% | 
COc1cc(OC)c2c(C)c3n(c2c1)C(=O)CN(Cc1ccccc1)C3=O | 0% | 
CCN1C(=O)/C(=C/c2c[nH]c3ccccc23)SC1=S | 40% | 
CCN1C(=O)c2cc3c(OC)cc(OC)cc3n2C1=S |  | 6.00
CCN1C(=O)C(=Cc2c[nH]c3ccc(OCc4ccccc4)cc23)C(=O)N(CC)C1=S |  | 6.40
CCN1C(=O)C(=Cc2cnc3ccccc3c2)C(=O)N(CC)C1=S | 0% | 
CCN1C(=O)C(=Cc2ccc3ccccc3n2)C(=O)N(CC)C1=S | 0% | 
C=CCN1C(=O)c2c(C)c3c(OC)cc(OC)cc3n2/C1=N/C#N | 19% | 
CCN1C(=O)C(=Cc2cc([N+](=O)[O-])cs2)C(=O)N(CC)C1=S | 0% | 
CCN1C(=O)C(=Cc2ccccn2)C(=O)N(CC)C1=S | 0% | 
C=CCN1C(=O)c2cc3c(OC)cc(OC)cc3n2C1=O | 0% | 
CCN1C(=O)C(=Cc2sccc2C)C(=O)N(CC)C1=S |  | 4.85
CCN1C(=O)/C(=C/c2ccc(-c3ccccc3C(F)(F)F)o2)SC1=S |  | 6.49
CCN1C(=O)C(=Cc2c[nH]c3c(C)cccc23)C(=O)N(CC)C1=S |  | 6.22
C=CCN1C(=O)c2c(C)c3c(OC)cc(OC)cc3n2C1=S |  | 5.96
C=CCN1C(=O)c2cc3ccc(OC)cc3n2C1=S |  | 5.77
CCN1C(=O)/C(=C/c2ccc(-c3cc(C(F)(F)F)nn3C)s2)SC1=S |  | 6.85
C=CCN1C(=O)n2c(cc3c(OC)cc(OC)cc32)C1=S |  | 6.21
CCN1C(=O)C(=Cc2ccncc2)C(=O)N(CC)C1=S | 0% | 
CCN1C(=O)C(=Cc2cn(C(C)=O)c3ccccc23)C(=O)N(CC)C1=S | 15% | 

Compound | inhibition [1] | pIC50 [2]
CCN1C(=O)c2cc3c(OC)cc(OCC(=O)OC(C)(C)C)cc3n2C1=S |  | 6.41
CCN1C(=O)C(=Cc2cccnc2)C(=O)N(CC)C1=S | 0% | 
CN1C(=O)C(=Cc2c[nH]c3ccccc23)C(=O)N(C)C1=S |  | 4.89
CCN1C(=O)C(=Cc2ccc(Br)s2)C(=O)N(CC)C1=S |  | 5.35
O=C1C(=Cc2c[nH]c3ccccc23)C(=O)N(c2ccccc2)C(=S)N1c1ccccc1 | 9% | 
C=CCN1C(=S)c2c(C)c3c(OC)cc(OC)cc3n2C1=S |  | 6.68
CCN1C(=O)c2cc3c(OC)cc(OCc4ccccn4)cc3n2C1=S |  | 6.51
C=CCN1C(=O)n2c(c(C)c3c(OC)cc(OC)cc32)C1=S |  | 6.68
CCN1C(=O)C(=Cc2cc(Br)cs2)C(=O)N(CC)C1=S | 2% | 
C=CCN1C(=O)c2cc3c(OC)cccc3n2C1=S |  | 5.68
CCN1C(=O)C(=Cc2cn(C)c3ccccc23)C(=O)N(CC)C1=S |  | 6.89
CCN1C(=O)C(=Cc2c[nH]c3ccc([N+](=O)[O-])cc23)C(=O)N(CC)C1=S |  | 5.26
CCN1C(=O)c2cc3c(OC)cc(OCOC)cc3n2C1=S |  | 6.55
C=CCN1C(=O)c2cc3c(OC)cc(OC)cc3n2C1=S |  | 6.55
Cc1ccccc1N1C(=O)/C(=C/c2c[nH]c3ccccc23)C(=O)NC1=S |  | 5.74
COc1cc(OC)c2cc3n(c2c1)C(=S)N(CCc1ccccc1)C3=O |  | 5.72
CCN1C(=O)c2cc3c(OC)cc(OCC(=O)O)cc3n2C1=S | 42% | 
Cc1ccccc1N1C(=O)C(=Cc2c[nH]c3ccccc23)C(=O)N(c2ccccc2C)C1=S |  | 6.10
C=CCN1C(=O)c2cc3cc(OC)c(OC)cc3n2C1=S | 53% | 
CCN1C(=O)C(=Cc2ccc(-c3ccsc3C(=O)OC)o2)C(=O)N(CC)C1=S |  | 5.55
CCN1C(=O)C2Cc3c(OC)cc(OC)cc3N2C1=S (centres undefined) | 0% | 
CCN1C(=O)/C(=C/c2ccc(-c3ccsc3C(=O)OC)o2)SC1=S |  | 6.52
CCN1C(=O)C(=Cc2c[nH]c3ccccc23)C(=O)N(CC)C1=S |  | 6.00
C=CCN1C(=O)c2cc3c(OC)c(OC)c(OC)cc3n2C1=S |  | 6.11
COC(=O)c1sccc1-c1ccc(C=C2C(=O)N(c3ccccc3)C(=S)N(c3ccccc3)C2=O)o1 |  | 4.40
COc1cc(OC)c2cc3n(c2c1)C(=S)N(CCCN1CCOCC1)C3=O |  | 6.17
O=C1C(=Cc2ccc(-c3ccccc3C(F)(F)F)o2)C(=O)N(c2ccccc2)C(=S)N1c1ccccc1 |  | 4.96
